Holding throughout (assay type): cell-based
Experiment [1] concerns NCI-H1581 cells with high expression of FGFR1. Briefly: Cell proliferation inhibition, CellTiter-Glo, NCI-H1581. The settings on record: Homo sapiens, 72 h, NCI-H1581, cultured for 3 days. From the text:
(§1) The compounds of the present disclosure can target and inhibit FGFR and VEGFR pathways, and inhibit tumor cell growth by inhibiting VEGF/VEGFR and FGF/FGFR signaling pathways. In this experiment, human non-small cell lung cancer cells NCI-H1581 with high expression of FGFR1, gastric cancer cells SNU-16 with high expression of FGFR2, and human bladder cancer cells RT112/84 with high expression of FGFR3 were selected. In this experiment, the inhibitory effect of compounds on cell proliferation was investigated by detecting the effect of the compounds of the present disclosure on the cell viability in vitro in the tumor cell lines NCI-H1581, SNU-16 and RT-112/84.
(§2) Regular passage, and cells in logarithmic growth phase were taken for plating.
(§3) • (1) Cells were stained with trypan blue and viable cells were counted. • (2) The cell concentration was adjusted to an appropriate concentration.
(§4) • (3) 90 μL of cell suspension per well was added to a culture plate, and cell-free culture solution was added to the blank control well. • (4) The plate was cultured overnight in a 37° C., 5% CO2 incubator with 100% relative humidity.
(§5) • (1) Preparation of 10× compound working solution: 78 μL of cell culture medium was added to a V-bottom 96-well plate, and 2 μL of compound was pipetted from a 400× compound storage plate and added to the cell culture medium of the 96-well plate. […]
On the technique in general: ATP-based viability assays read luminescence as a measure of living cells.

Experiment [2] concerns Ba/F3-TEL-VEGFR2. Briefly: In vitro proliferation of BaF3 cell line, Ba/F3-TEL-VEGFR2. To be noted: Ba/F3-TEL-VEGFR2, 72 h. How it is done: The mother solution was prepared into a total of 9 concentration gradients (10.0000 mM, 2.5000 mM, 0.6250 mM, 0.1563 mM, 0.0391 mM, 0.0098 mM, 0.0024 mM, 0.0006 mM and 0.0002 mM) in a 4-fold dilution and stored in a 96-well plate (Beaver, Suzhou), while the same volume of DMSO solvent was used as a negative control. • 1. Cell suspension in logarithmic growth phase was taken and inoculated in a white 96-well cell culture plate (Corning 3917, NY, USA) with a volume of 95 μL per well (2000 cells/well). • 2. Diluted medium-compound mixture was added in a volume of 5 μL per well, respectively, and the final concentration of DMSO in Ba/F3-TEL-FLT1 (VEGFR1), Ba/F3-TEL-FLT4 (VEGFR3) and Ba/F3-TEL-VEGFR2 cells was 0.1%.
• 3. The plate was incubated in a 37° C., 5% CO2 incubator for 72 h. • 4. The proliferation inhibitory activity and data analysis of the compound by CellTiter-Glo method were the same as in Experimental embodiment 1.

Experiment [3] has as its system gastric cancer cells SNU-16 with high expression of FGFR2. Briefly: Cell proliferation inhibition, CellTiter-Glo, SNU-16. To be noted: Homo sapiens, 72 h, SNU-16, cultured for 3 days.
Source text: as §1, §2, §3, §4, §5

The structures appear in SMILES notation. pIC50: −log10 of the molar value.

As a reminder, the pIC50 is −log10 of the IC50, conventionally taken in molar units. As for `CS(=O)(=O)O.Cn1cc(-c2ccn3c(-c4cc(NS(C)(=O)=O)nc(-c5ccc(F)cc5F)c4)cnc3c2)cn1`, the pIC50 in experiment [1] was 6.93; in experiment [2] (Mus musculus, BaF3, read-out: Relative IC50), about 8.01; in experiment [3], 7.35. In experiment [2], this compound showed a Maximum inhibition of 99.99%. Further, in experiment [2], the Minimum inhibition is on record as 8.23%.

The values are drawn from US20240409534A1, “CRYSTAL FORM OF METHYLPYRAZOLE-SUBSTITUTED PYRIDOIMIDAZOLE COMPOUND AND PREPARATION METHOD THEREFOR” (priority 2021, published 2024).
